Tests used:
[1] = Plasma Stability; format: in vitro ADME, human
How it was run: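 Parent compound quantified by LC-MS/MS after acetonitrile precipitation, reported as percent of control remaining (triplicate). Incubation: 1 hour, 37° C, fresh human plasma, compound at 1 μM.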

[2] = Stability in Simulated Intestinal Fluid (SIF); format: in vitro ADME; set-up: key: % parent compound remaining relative to 0-minute sample
How it was run: (§1)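 LC-MS/MS read-out of intact compound (2 μg/mL final) over 60 minutes at 37° C; gastric medium pH 1.2 with pepsin, intestinal medium pH 6.8 with pancreatin. Half-life from ln(% remaining) against time.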

[3] = Caco-2 Permeability Assay; format: in vitro ADME, human; conditions: human
How it was run: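 Bidirectional transport at 37 °C for 90 min, 10 μM donor concentration, with or without Pgp inhibitor, across 21-day Caco-2 monolayers with TEER >600 […] in HEPES-buffered HBSS, pH 7.4. LC-MS/MS of donor and receiver samples gives Papp, B→A/A→B efflux ratio and mass recovery.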

[4] = Stability in Simulated Gastric Fluid (SGF); format: in vitro ADME; set-up: key: % parent compound remaining relative to 0-minute sample
How it was run: as §1

[5] = % remaining at 1 h, human plasma, 1 μM, 37° C.
[6] = % remaining at 1 h, SIF with pancreatin pH 6.8, 2 μg/mL, 37° C.
[7] = Caco-2, pH 7.4, donor 10 μM, 90 minutes, 37° C., direction not given
[8] = % remaining at 1 h, SGF with pepsin pH 1.2, 2 μg/mL, 37° C.
[9] = % remaining at 1 h in human plasma, the 17th table
[10] = % remaining at 1 h in simulated intestinal fluid, the 17th table
[11] = Caco-2, pH 7.4, Caco-2 monolayer, the 17th table
[12] = % remaining at 1 h in simulated gastric fluid, the 17th table
[13] = % remaining at 1 h in human plasma
[14] = % remaining at 1 h in simulated intestinal fluid
[15] = Caco-2, pH 7.4, Caco-2 monolayer
[16] = % remaining at 1 h in simulated gastric fluid
[17] = simulated intestinal fluid, at 1 h
[18] = simulated gastric fluid, at 1 h
[19] = bare number, no % and no time given

CC(C)OCCn1c(=S)[nH]c(=O)c2c1ccn2COP(=O)(O)O [Example 83, ({4-oxo-1-[2-(propan-2-yloxy)ethyl]-2-sulfanylidene-1H,2H,3H,4H,5H-pyrrolo[3,2-d]pyrimidin-5-yl}methoxy)phosphonic acid]
human Plasma stability [1, 5]: 95% @
SIF [2, 6]: 100%
Papp at 90 min, 10 µM [3, 7]: < 1.07 ×10⁻⁶ cm/s
SGF [4, 8]: 91%

CC(C)OCCn1c(=S)[nH]c(=O)c2c1ccn2C(=O)NCc1ccccc1 [Example 228]
human Plasma stability [1, 9]: 99% remaining
SIF [2, 10]: 100% remaining
Papp at 90 min, 10 µM [3, 11]: 10.3 ×10⁻⁶ cm/s
SGF [4, 12]: 95% remaining

COC(=O)OCSc1nc(=O)c2c(ccn2COC(=O)OC)n1CCOC(C)C [Example 198]
human Plasma stability ([1]; % remaining at 1 h in human plasma, the 15th table): 0% remaining
SIF ([2]; % remaining at 1 h in simulated intestinal fluid, the 15th table): 74% remaining
Papp at 90 min, 10 µM ([3]; Caco-2, pH 7.4, Caco-2 monolayer, the 15th table): 11.4 ×10⁻⁶ cm/s
SGF ([4]; % remaining at 1 h in simulated gastric fluid, the 15th table): 79% remaining

CCCCCOC(=O)OCn1c(=O)c2c(ccn2COC(=O)OCCCCC)n(CCOC(C)C)c1=S [Example 218]
human Plasma stability [1, 9]: 74% remaining
SIF [2, 10]: 2% remaining
Papp at 90 min, 10 µM [3, 11]: 0.65 ×10⁻⁶ cm/s
SGF [4, 12]: 100% remaining

CC(C)OCCn1c(=S)[nH]c(=O)c2c1ccn2COC(=O)CCCCNC(=O)CN(C)C(=O)CNC(=O)OC(C)(C)C.O=C(O)C(F)(F)F [Example 57]
human Plasma stability [1, 13]: 0% remaining
SIF [2, 14]: 96% remaining
Papp at 90 min, 10 µM [3, 15]: 0.28 ×10⁻⁶ cm/s
SGF [4, 16]: 81% remaining

Cc1ccccc1N(C)C(=O)OCSc1nc(=O)c2[nH]ccc2n1CCOC(C)C [Example 242]
human Plasma stability ([1]; human plasma, at 1 h): 81% remaining
SIF [2, 17]: 96% remaining
Papp at 90 min, 10 µM [3, 15]: 15.6 ×10⁻⁶ cm/s
SGF [4, 18]: 52% remaining

COCCOCCOCC(=O)OCn1ccc2c1c(=O)[nH]c(=S)n2CCOC(C)C [Example 87]
human Plasma stability [1, 5]: 0%
SIF [2, 6]: 28%
Papp at 90 min, 10 µM [3, 7]: 7.05 ×10⁻⁶ cm/s
SGF [4, 8]: 97%

Cc1cccc(OC(=O)OCn2ccc3c2c(=O)[nH]c(=S)n3CCOC(C)C)c1 [Example 237]
human Plasma stability ([1]; human plasma, at 1 h): 1% remaining
SIF [2, 17]: 2% remaining
Papp at 90 min, 10 µM [3, 15]: 0.723 ×10⁻⁶ cm/s
SGF [4, 18]: 74% remaining

CC(C)OCCn1c(=S)n(COCC[Si](C)(C)C)c(=O)c2[nH]ccc21 [Example 70, 1-[2-(Propan-2-yloxy)ethyl]-2-sulfanylidene-3-{[2-(trimethylsilyl)ethoxy]methyl}-1H,2H,3H,4H,5H-pyrrolo[3,2-d]pyrimidin-4-one]
human Plasma stability [1, 5]: 99%
SIF [2, 6]: 99%
Papp at 90 min, 10 µM ([3]; Caco-2, pH 7.4, no unit printed at the place (tables the 9th table and the 10th table have no head)): 23.2 ×10⁻⁶ cm/s
SGF [4, 8]: 96%

CC(C)OCCn1c(SCOC(=O)N(CC(F)(F)F)CC(F)(F)F)nc(=O)c2c1ccn2COC(=O)N(CC(F)(F)F)CC(F)(F)F [Example 97, {2-[{{[bis(2,2,2-trifluoroethyl)carbamoyl]oxy}methyl)sulfanyl]-4-oxo-1-[2-(propan-2-yloxy)ethyl]-1H,4H,5H-pyrrolo[3,2-d]pyrimidin-5-yl}methyl N,N-bis(2,2,2-trifluoroethyl)carbamate]
human Plasma stability [1, 5]: 99% remaining
SIF [2, 19]: 96
Papp at 90 min, 10 µM [3, 7]: 30.8 ×10⁻⁶ cm/s
SGF [4, 19]: 98

CC(C)OCCn1c(=S)[nH]c(=O)c2c1ccn2C(C)OC(=O)N(CC(F)(F)F)CC(F)(F)F (stereo not shown) [Example 112, 1-{4-oxo-1-[2-(propan-2-yloxy)ethyl]-2-sulfanylidene-1H,2H,3H,4H,5H-pyrrolo[3,2-d]pyrimidin-5-yl}ethyl N,N-bis(2,2,2-trifluoroethyl)carbamate]
human Plasma stability [1, 5]: 99%
SIF [2, 6]: 100%
Papp at 90 min, 10 µM [3, 7]: 21.1 ×10⁻⁶ cm/s
SGF [4, 8]: 100%

CC(C)OCCn1c(=S)n(COC(=O)[C@H](N)C(C)C)c(=O)c2c1ccn2COC(=O)[C@H](N)C(C)C.O=C(O)C(F)(F)F.O=C(O)C(F)(F)F [Example 301, bis(trifluoroacetic acid) [3-({[(2R)-2-amino-3-methylbutanoyl]oxy}methyl)-4-oxo-1-[2-(propan-2-yloxy)ethyl]-2-sulfanylidene-1H,2H,3H,4H,5H-pyrrolo [3,2-d]pyrimidin-5-yl]methyl (2R)-2-amino-3-methylbutanoate]
human Plasma stability ([1]; % remaining @ 1 h): 5% @ 1 h
SIF ([2]; % remaining @ 1 h): 10% @ 1 h
Papp at 90 min, 10 µM ([3]; Caco-2, pH 7.4): 1.72 ×10⁻⁶ cm/s
SGF ([4]; % remaining @ 1 h): 97% @ 1 h

CC(C)OCCn1c(SCOC(=O)[C@@H](NC(=O)OC(C)(C)C)C(C)C)nc(=O)c2c1ccn2COC(=O)[C@@H](NC(=O)OC(C)(C)C)C(C)C [Example 295, {[5-({[(2S)-2-{[(tert-butoxy)carbonyl]amino}-3-methylbutanoyl]oxy}methyl)-4-oxo-1-[2-(propan-2-yloxy)ethyl]-1H,4H,5H-pyrrolo[3,2-d]pyrimidin-2-yl]sulfanyl}methyl (2S)-2-{[(tert-butoxy)carbonyl]amino}-3-methylbutanoate]
human Plasma stability ([1]; % remaining @ 1 h): 81% @ 1 h
SIF ([2]; % remaining @ 1 h): 0% @ 1 h
Papp at 90 min, 10 µM ([3]; Caco-2, pH 7.4): 17 ×10⁻⁶ cm/s
SGF ([4]; % remaining @ 1 h): 58% @ 1 h

Cc1ccccc1N(C)C(=O)OCSc1nc(=O)c2c(ccn2COC(=O)N(C)c2ccccc2C)n1CCOC(C)C [Example 243]
human Plasma stability ([1]; human plasma, at 1 h): 99% remaining
SIF [2, 17]: 99% remaining
Papp at 90 min, 10 µM [3, 15]: 31.4 ×10⁻⁶ cm/s
SGF [4, 18]: 88% remaining

CSCC[C@H](NC(=O)OC(C)(C)C)C(=O)NCCCCC(=O)OCn1ccc2c1c(=O)[nH]c(=S)n2CCOC(C)C [Example 28]
human Plasma stability [1, 13]: 62% remaining
SIF [2, 14]: 75% remaining
Papp at 90 min, 10 µM [3, 15]: 6.7 ×10⁻⁶ cm/s
SGF [4, 16]: 99% remaining

CC(C)OCCn1c(=S)[nH]c(=O)c2c1ccn2COC(=O)CCCCNC(=O)[C@@H](N)Cc1c[nH]c2ccccc12.O=C(O)C(F)(F)F [Example 51]
human Plasma stability [1, 13]: 2% remaining
SIF [2, 14]: 83% remaining
Papp at 90 min, 10 µM [3, 15]: 0.519 ×10⁻⁶ cm/s
SGF [4, 16]: 94% remaining

CC(C)C[C@H](N)C(=O)OCSc1nc(=O)c2c(ccn2COC(=O)[C@@H](N)CC(C)C)n1CCOC(C)C.O=C(O)C(F)(F)F.O=C(O)C(F)(F)F [Example 321, bis(trifluoroacetic acid) {[5-({[(2S)-2-amino-4-methylpentanoyl]oxy}methyl)-4-oxo-1-[2-(propan-2-yloxy)ethyl]-1H,4H,5H-pyrrolo[3,2-d]pyrimidin-2-yl]sulfanyl}methyl (2S)-2-amino-4-methylpentanoate]
human Plasma stability ([1]; % remaining @ 1 h): 1%@ 1 h
SIF ([2]; % remaining @ 1 h): 2%@ 1 h
Papp at 90 min, 10 µM ([3]; Caco-2, pH 7.4): < 0.365 ×10⁻⁶ cm/s
SGF ([4]; % remaining @ 1 h): 92%@ 1 h

CC(C)OCCn1c(SCOC(=O)OCCOCCNC(=O)OC(C)(C)C)nc(=O)c2[nH]ccc21 [Example 369, 2-{[{{[2-(2-{[(tert-butoxy)carbonyl]amino}ethoxy)eth-oxy]carbonyl}oxy)methyl]sulfanyl}-1-[2-(propan-2-yloxy)ethyl]-1H,4H,5H-pyrrolo[3,2-d]pyrimidin-4-one]
human Plasma stability ([1]; human plasma, remaining at 1 h): 1% remaining
SIF ([2]; simulated intestinal fluid, remaining at 1 h): 1% remaining
Papp at 90 min, 10 µM [3, 15]: < 0.107 ×10⁻⁶ cm/s
SGF ([4]; simulated gastric fluid, remaining at 1 h): 89% remaining

CC(C)OCCn1c(=S)n(COC(=O)C(C)(C)C)c(=O)c2c1ccn2COC(=O)C(C)(C)C [Example 143, 2,2-Dimethyl-propionic acid 5-(2,2-dimethyl-propionyloxymethyl)-1-(2-isopropoxy-ethyl)-4-oxo-2-thioxo-1,2,4,5-tetrahydro-pyrrolo[3,2-d]pyrimidin-3-ylmethyl ester]
human Plasma stability [1, 5]: 21%
SIF [2, 6]: 82%
Papp at 90 min, 10 µM [3, 7]: 3 ×10⁻⁶ cm/s
SGF [4, 8]: 62%

CC(C)OCCn1c(=S)[nH]c(=O)c2c1ccn2COC(=O)[C@@H](NC(=O)OC(C)(C)C)C(C)C [Example 294, {4-oxo-1-[2-(propan-2-yloxy)ethyl]-2-sulfanylidene-1H,2H,3H,4H,5H-pyrrolo[3,2-d]pyrimidin-5-yl}methyl (2S)-2-{[(tert-butoxy)carbonyl]amino}-3-methylbutanoate]
human Plasma stability ([1]; % remaining @ 1 h): 98% @ 1 h
SIF ([2]; % remaining @ 1 h): 3% @ 1 h
Papp at 90 min, 10 µM ([3]; Caco-2, pH 7.4): 26.8 ×10⁻⁶ cm/s
SGF ([4]; % remaining @ 1 h): 98% @ 1 h

CC(C)OCCn1c(=S)[nH]c(=O)c2c1ccn2COC(=O)OC1CN(C(=O)OC(C)(C)C)C1 [Example 125]
human Plasma stability [1, 13]: 3% remaining
SIF [2, 14]: 17% remaining
Papp at 90 min, 10 µM [3, 15]: 24.9 ×10⁻⁶ cm/s
SGF [4, 16]: 85% remaining

CCCC(=O)OCSc1nc(=O)c2c(ccn2COC(=O)CCC)n1CCOC(C)C [Example 155]
human Plasma stability ([1]; % @ 1 h (remaining) in human plasma): 1% @ 1 h
SIF ([2]; % @ 1 h (remaining) in simulated intestinal fluid): 0% @ 1 h
Papp at 90 min, 10 µM [3, 15]: 2.79 ×10⁻⁶ cm/s
SGF ([4]; % @ 1 h (remaining) in simulated gastric fluid): 73% @ 1 h

Source: US20240067651A1 (Biohaven Therapeutics Ltd., priority 2019, published 2024)
